{"source": "paper PMC11684006", "about": "“A Putative Frizzled 7-Targeting Compound Acts as a Firefly Luciferase Inhibitor” (Journal of Medicinal Chemistry, 2024)", "biological_target": "T1, Firefly luciferase (Fluc) (Photinus pyralis, UniProt P08659)", "T1 construct": "Fluc amplified from the Super8X TOPFlash reporter plasmid, constitutively expressed under a CMV promoter", "T1 sequence (P08659 whole entry)": "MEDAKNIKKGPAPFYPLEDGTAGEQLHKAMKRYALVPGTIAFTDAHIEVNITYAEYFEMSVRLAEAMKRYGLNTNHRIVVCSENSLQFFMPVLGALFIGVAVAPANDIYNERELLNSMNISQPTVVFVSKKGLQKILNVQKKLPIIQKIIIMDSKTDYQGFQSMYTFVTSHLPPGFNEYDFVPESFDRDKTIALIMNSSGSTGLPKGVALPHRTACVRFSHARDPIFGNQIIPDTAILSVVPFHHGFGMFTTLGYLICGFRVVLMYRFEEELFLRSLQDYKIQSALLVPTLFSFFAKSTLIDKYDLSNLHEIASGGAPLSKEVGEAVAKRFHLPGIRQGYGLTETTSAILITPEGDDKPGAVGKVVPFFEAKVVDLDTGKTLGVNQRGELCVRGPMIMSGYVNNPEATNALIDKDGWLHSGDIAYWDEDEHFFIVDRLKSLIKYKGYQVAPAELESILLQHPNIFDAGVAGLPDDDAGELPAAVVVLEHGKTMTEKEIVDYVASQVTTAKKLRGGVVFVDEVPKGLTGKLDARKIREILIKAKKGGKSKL", "experiment": "Fluc bioluminescence in lysates of compound-treated ΔFZD1–[…] HEK293T cells expressing CMV-driven Fluc (counter assay); Rluc and Nluc unaffected", "type": "cell-based"}
{"smiles": "Cc1ccc(C(=O)Nc2ccc(SCC(=O)Nc3nc(-c4ccccc4)cs3)cc2)c(C)c1", "note": "[compound 3, 2,4-Dimethyl-N-(4-((2-oxo-2-((4-phenylthiazol-2-yl)amino)ethyl)thio)phenyl)benzamide]", "values": [{"measurement": "IC50", "result": 25, "unit": "nM"}]}
